Patent US10441568B2, “Nitroxide radicals for the treatment of diseases of the respiratory tract” (priority 2015, dated 2019)

Key:
[1] = Nitroxide concentration measurement by EPR in mouse blood and tissue; assay type: in vivo; conditions: mice
Experimental: Electron paramagnetic resonance (EPR) spectroscopy was used to determine residual levels of nitroxide in mouse tissue. Blood samples or tissue samples were diluted with 0.5 ml phosphate buffer (40 mM, pH 7.4) or water, inserted into a flexible capillary placed in a quartz tube installed within the EPR spectrometer cavity and assayed for residual nitroxide. A similar procedure was used to determine the residual nitroxide in tissue homogenates of various organs, which were corrected for blood contamination spectrophotometrically by following the absorption of oxyhemoglobin at 400-600 nm. Measured EPR signals were compared to those of a nitroxide standard solution.
In order to determine total hydroxylamine and nitroxide concentrations, 2 mM K3Fe(CN)6 was added to samples in order to oxidize hydroxylamines to the respective nitroxide, and the nitroxide level was determined by EPR spectroscopy as described hereinabove.
(§1) Control and experimental groups contained 10 mice each. The effects of the nitroxides were investigated by feeding the mice ad libitum a diet of nitroxide-containing chow (1 weight percent) during both ovalbumin (OVA)-induced sensitization and challenging periods (days −2-19), during the sensitization period (days −2-11) or challenge period (days 13-19). Nitroxide-containing chow were prepared by dissolving 500 grams chow in a minimum volume of water containing 5 grams nitroxide and 5 grams commercial chicken soup powder, preparing the chow and drying it at 37° C. (animals were reluctant to eat nitroxide-containing chow until chicken soup powder was added).
(§2) 3-CP was also administered using 3 daily intraperitoneal (IP) injections (200 μl, 0.15 M, ˜300 mg/kg) 0.5 hour prior to the challenge with OVA aerosol, or by nasal instillation (50 μl, 0.3 M, ˜150 mg/kg) twice a day 0.5 hour prior to the challenge with OVA aerosol and 6 hours later without exceeding its maximally tolerated dose, which has been previously established to be 300-500 mg/kg. Both 3-CP and TPL were non-toxic when administered orally or via IP injection to untreated OVA-challenged mice for 22 days.

[2] = Toxicity / maximally tolerated dose in mice; assay type: in vivo; conditions: administered orally or via IP injection to untreated OVA-challenged mice for 22 days
Experimental: as §2

[3] = system: ovalbumin-induced murine model of asthma; test: Lung resistance / airway hyper-responsiveness to methacholine in OVA asthma model; assay type: in vivo, BALB/c mice; conditions: oral
Experimental: (§3) All experimental procedures were carried out in accordance with the NIH Guidelines for the Care and Use of Laboratory Animals. Specific pathogen-free (SPF) male BALB/c mice (6-7 weeks of age, 18-22 grams), routinely screened serologically for relevant respiratory pathogens, were maintained in an animal housing facility for 1 week before use and given access to food and water ad libitum. Animals were randomly assigned to the indicated experimental groups, and sensitized with two intraperitoneal (IP) injections (20 μg ovalbumin (OVA) emulsified in 2 mg aluminum hydroxide (an adjuvant) in 200 μl phosphate buffer saline (PBS), pH 7.4), on days 1 and 10.
(§4) After another week, the animals were challenged by exposure to ovalbumin (OVA) aerosol (1%, w/v, in PBS) for 30 minutes each day on days 17, 18 and 19, in order to elicit an inflammatory reaction in the lungs characterized by airway hyper-responsiveness (AHR), an influx of inflammatory cells (particularly eosinophils), and increased pulmonary levels of various cytokines and transforming growth factors, protein nitration and lipid peroxidation.
(§5) The features of allergic inflammation typically reached their peak a day or two after the final exposure. Mice were then subjected to one of the following treatments: (i) sham-sensitization plus challenge with PBS; (ii) positive control-sensitization plus challenge with OVA; (iii) sensitization plus challenge with OVA and various indicated treatments (e.g., with nitroxide or dexamethasone), including different modes (oral, IP, intranasal, inhalation), time windows (sensitization stage, challenge stage, both stages and after the last challenge), and doses of nitroxide administration.
One day after the final challenge, respiratory activity and airway hyper-responsiveness (AHR) of experimental animals were evaluated. Whole body plethysmographs for enhanced pause (Penh) measurements are often used for assessment of AHR. However, critics have questioned the validity of Penh measurements, which supposedly measure airway obstruction of live non-sedated mice, stating that it is likely to measure the distress of the animal rather than actual obstruction. […] In brief, mice were sedated with an intraperitoneal (IP) injection of xylazine hydrochloride and anaesthetized with IP injection of pentobarbital. Subsequently, the animals were tracheostomized using an 18 gauge cannula, ventilated with a FlexiVent™ apparatus (SCIREQ), and muscle paralysis was induced with pancuronium bromide. The mice were ventilated in a quasi-sinusoidal fashion with the following settings: a tidal volume of 10 ml/kg, maximum inflation pressure of […] (30 cm H2O), a positive end expiratory pressure (PEEP) of 3 millibar and a frequency of 150 per minute. Following an equilibration period of 3 minutes of tidal ventilation, two lung inflations to a transrespiratory pressure of 2.5 millibar were performed and baseline measurements were taken. Airway hyper-responsiveness (AHR) was determined by aerosolizing increasing concentrations of methacholine. After baseline determination of airway resistance, mice were challenged with 0 to 64 mg/mL methacholine nebulized directly into the ventilatory circuit using an AeroNeb™ Lab nebulizer system (SCIREQ). Two models of respiratory mechanics were used to assess lung resistance: a linear 1st-order single compartment model and a constant-phase model. All data points were collected with FlexiVent™ software (SCIREQ). […]

[4] = system: ovalbumin-induced murine model of asthma; test: Inflammatory cell counts in BAL fluid in OVA asthma model; assay type: in vivo, BALB/c mice
Experimental: as §3, §4, §5
(§6) Bronchoalveolar lavage (BAL) fluid (also referred to herein as “BALf”) and bronchial submucosal inflammation are characteristic features of asthma. Mice were euthanized with an overdose of 50 mg/kg pentobarbital and ice-cold phosphate buffer saline (PBS) (0.6 ml) was instilled into the lungs. BAL fluid was obtained by three aspirations via tracheal cannulation, centrifuged, and the supernatant collected and stored at −70° C. Cell pellets were re-suspended in PBS and 100 μl aliquots placed onto slides and centrifuged (200 g, 4° C., 10 minutes) in a cytospin machine. Induction of oxidative stress was evaluated using a 2′,7′-dichlorofluorescein fluorescence assay, and total IgE, IgG2a, panel of cytokines, transforming growth factors, collagen, protein nitration and lipid peroxidation were measured using commercial kits according to the manufacturer's recommendations. A Sircol™ collagen assay kit was obtained from Biocolor Life Sciences Assays, a protein nitration assay kit was obtained from Abcam, and other assay kits were obtained from PeproTech Asia.
as §1
as §2, with “days. […]” for “days.”

[5] = Nitroxide concentration measurement by EPR in mouse blood and tissue; assay type: in vivo; conditions: mice fed chow with 0.7 weight percent 3-CPT, FIG. 12
Water-solubility = conditions: compared with 3-CP, data not shown
IL-13 = IL-13 level in OVA asthma model; assay type: in vivo, BALB/c mice; conditions: OVA IP-Dex: dexamethasone intraperitoneal (1 mg/kg); lung tissue (table title)
Experimental: as §3, §4, §6
The efficacy of oral administration of 3-CP (1 weight percent in chow) during the sensitization period and/or challenge period was then compared to IP injection (˜300 mg/kg, 0.5 hour before the OVA challenge) or intranasal instillation (˜150 mg/kg, 0.5 hour before the OVA and 6 hours later) of 3-CP, as well as to dexamethasone treatment (1 mg/kg, 3 daily IP injections, 0.5 hour prior to the challenge with OVA aerosol).
In order to assess the effect of 3-CP on inflammatory signaling pathways, […] to procedures described hereinabove, upon oral, intranasal or IP administration of 3-CP.

With `CC1(C)CC(O)CC(C)(C)N1[O]` [TPL, 4-Hydroxy-2,2,6,6-tetramethyl-piperidin-1-oxyl, reference compound] the “residual concentration of the respective hydroxylamine compared with the nitroxide” value ([1]; data not shown) was “higher than those of the therapeutically active nitroxide free radical”, the “residual concentration of nitroxide in blood” value ([1]; oral administration (1 weight percent nitroxide in chow), FIG. 1) was “detectable levels” and the toxicity [2] was “non-toxic”. The “effect on methacholine-induced increase in lung resistance” value ([3]; 1 weight percent in chow, FIG. 3) was “suppressed methacholine-induced increase in lung resistance” and the “effect on OVA-induced increase in total inflammatory cell and eosinophil counts in BAL fluid” value ([4]; oral, 1 weight percent in chow, FIG. 4) was “attenuated the increase in total inflammatory cell counts and eosinophil counts”.
With `CC1(C)C=C(C(N)=O)C(C)(C)N1[O]` [3-CPT, 3-carbamoyl-2,2,5,5-tetramethyl-3-pyrrolin-1-oxyl] the “effect on methacholine-induced lung resistance” value ([3]; 0.7 weight percent 3-CPT in chow, FIG. 14) was “reduced methacholine-induced lung resistance, albeit to a considerably lesser degree than 3-CP”, the “inhibiting increases in inflammatory cell levels (especially eosinophil levels) in asthmatic animals” value ([4]; 3-CPT oral (0.7 weight percent in chow) or intraperitoneal (300 mg/kg), FIG. 13) was “effective” and the “effect on OVA-induced increase of total cell counts in BAL fluid” value ([4]; oral, 0.7 weight percent 3-CPT in chow, FIG. 13) was “effective in reversing OVA-induced increase of total cell counts”. For the same molecule, the “reduction to the respective hydroxylamine in the blood” value [5] was “most of the 3-CPT in the blood was reduced to the respective hydroxylamine” and the water-solubility (Water-solubility) was “lower water-solubility than 3-CP”.
Work on `C[C@@H]1C[C@H]2[C@@H]3CCC4=CC(=O)C=C[C@]4(C)[C@@]3(F)[C@@H](O)C[C@]2(C)[C@@]1(O)C(=O)CO` [dexamethasone, Dexamethasone, reference compound] yielded an IL-13 level (IL-13) of 1.80 ng/mg.
